Assay results taken from patent US4061542A, “2-Methyl-L-arginine produced by cultivating streptomyces strain” (Hoffmann-La Roche Inc., priority 1976, dated 1977).
Read-outs that look alike come from different tables or passages of the source.

Tests used:
[1] = Acute toxicity (LD50) in mice; assay type: in vivo; settings: mouse, in vivo, mice
ornithine decarboxylase [2] = settings: in words; comparison substance; cited from earlier work
spermidine production [3] = settings: in words; comparison substance; cited from earlier work
males [4] = settings: administered to males; comparison substance; cited from earlier work
ornithine decarboxylase [5] = assay: Inhibition of ornithine decarboxylase; assay type: biochemical; settings: in words; no test data given
spermidine production [6] = assay: Suppression of spermidine production; settings: in words; no test data given
males [7] = assay: Anti-fertility activity when administered to males; assay type: in vivo; settings: in words, no test data given
Escherichia coli B = assay: Paper-disc agar-diffusion assay (Scannell et al.), Escherichia coli B as test organism, minimal agar medium; assay type: cell-based
Excerpt: (§1) The anti-microbial properties of the compound of the formula I and its salts are shown by the paper-disc agar-diffusion assay as described by Scannell et al. J. Antibiotics 25: 179-184 (1972). In this assay, Escherichia coli B as test organism, the minimal agar medium described by Scanell et al. was employed for the initial detection and during isolation of the antimetabolite. Similar to N^5 -hydroxy-L-arginine, the diameter of the inhibition zone was proportional to the logarithm of concentration of the compound of formula I within the range of 2 to about 100 λg/ml. A two-fold increase of the concentration of the compound of formula I increased the inhibition zone diameter by 3 mm and a […] solution gave a zone of about 36 mm.
(§2) (ATCC 27860) as againt E. coli.

[8] = test system: Bacillus sp. (ATCC 27860); assay: Antibiotic activity against Bacillus sp. (ATCC 27860); assay type: cell-based
Excerpt: as §1, §2

mice = assay: Acute toxicity (LD50) in mice; assay type: in vivo; settings: in words

C[C@](N)(CCCNC(=N)N)C(=O)O
LD50 ([1]; ip): > 1000 mg/kg
LD50 ([1]; po): > 1000 mg/kg

CC(N)(CCCN)C(=O)O (racemic) [D,L-2-methyl ornithine]
inhibition of ornithine decarboxylase (ornithine decarboxylase [2]): inhibitor of ornithine decarboxylase
suppression of spermidine production (spermidine production [3]): suppresses spermidine production
anti-fertility activity (males [4]): anti-fertility agent

C[C@](N)(CCCN)C(=O)O [L-2-methyl ornithine, 2-methyl-L-ornithine]
inhibition of ornithine decarboxylase (ornithine decarboxylase [5]): inhibitor of ornithine decarboxylase
suppression of spermidine production (spermidine production [6]): suppresses spermidine production
anti-fertility activity (males [7]): anti-fertility agent

C[C@](N)(CCCNC(=N)N)C(=O)O [compound of formula I, 2-methyl-L-arginine]
reversal of antibiotic activity against Escherichia coli (Escherichia coli B; by added amino acids): reversed by L-arginine, L-citrulline, L-ornithine and N^2 -acetyl-L-ornithine
activity against Escherichia coli B (Escherichia coli B; in words): active
increase of inhibition zone diameter on two-fold increase of concentration (Escherichia coli B; two-fold increase of the concentration, Escherichia coli B): 3 mm
activity against Bacillus s.p. ([8]; in words): active
level of activity against Bacillus sp. (ATCC 27860) compared with E. coli ([8]; relative to E. coli): approximately the same level of activity
toxicity to vertebrates (mice): relatively non-toxic
